Test results from patent US20050209157A1, “Short bioactive peptides and methods for their use” (priority 2001, published 2005).
No end group written: not given here.

Legend:
[1] = tested on: Pseudomonas aeruginosa ATCC 9027; experiment: Antimicrobial assay I, MIC by OD measurement; type: cell-based; details: 37° C. for 24 hours, absorbance 620 nm
[2] = tested on: Staphylococcus aureus ATCC 6538; experiment: Antimicrobial assay I, MIC by OD measurement; type: cell-based; details: 37° C. for 24 hours, absorbance 620 nm
[3] = tested on: yeast (Saccharomyces cerevisiae); experiment: Antimicrobial assay I, yeast assay in RPMI 1640; type: cell-based; details: RPMI 1640 media
BMKC = experiment: Anti-cancer assay, MTT, LD50; type: cell-based; details: BMKC cloned melanoma line, 24 hours with peptide
Text: (§1) Numbers are LD50 values (μg/mL).

H1299 = experiment: Anti-cancer assay, MTT, LD50; type: cell-based; details: 24 hours with peptide, lung large cell carcinoma
Text: as §1

HeLaS3 = experiment: Anti-cancer assay, MTT, LD50; type: cell-based; details: 24 hours with peptide, cervical carcinoma
Text: as §1

MCF7 = experiment: Anti-cancer assay, MTT, LD50; type: cell-based; details: MCF7 breast adenocarcinoma line, MTT, 24 hours with peptide
Text: as §1

PC3 = experiment: Anti-cancer assay, MTT, LD50; type: cell-based; details: 24 hours with peptide, prostate adenocarcinoma
Text: as §1

SW480 = experiment: Anti-cancer assay, MTT, LD50; type: cell-based; details: SW480 colon adenocarcinoma line, 24 hours with peptide
Text: as §1

[4] = tested on: human red blood cells (RBC); experiment: in vitro; type: cell-based; details: hemolytic assay, concentration at 50% hemolysis, 1 hour at 37° C.
WI38 = details: MTT, 24 hours with peptide; for WI38 LD50: normal fibroblast line; for LD50 WI38: WI38 normal lung fibroblast line

For “FAKGVGKVGKKAL-NH2 [P137, FAKGVGKVGKKAL-NH2]”, the “paerug9027 (MIC)” value [1] was “> (> indicates greater than 200 μg/mL)”, the “staph6538 (MIC)” value [2] was “> (> indicates greater than 200 μg/mL)” and the “yeast (MIC or MFC)” value [3] was “> (> indicates greater than 200 μg/mL)”. For the same substance, the “LD50 BMKC” value (BMKC) was “> (> indicates greater than 1000)”, the “H1299 LD50” value (H1299) was “> (> indicates greater than 1000)” and the “HeLaS3 LD50” value (HeLaS3) was “> (> indicates greater than 1000)”. The “LD50 MCF7” value (MCF7) was “> (> indicates greater than 1000)”, the “PC3 LD50” value (PC3) was “> (> indicates greater than 1000)” and the “LD50 SW480” value (SW480) was “> (> indicates greater than 1000)”. The LD50 [4] was “> (> indicates greater than 1000)”, the “WI38 LD50” value (WI38) was “> (> indicates greater than 1000)” and the “LD50 WI38” value (WI38) was “> (> indicates greater than 1000)”.

FAKKLKKLAKKL-NH2 [P79] was tested, and the “paerug9027 (MIC)” value [1] was 200 µg/mL, the “staph6538 (MIC)” value [2] was 100 µg/mL and the “yeast (MIC or MFC)” value [3] was 100 µg/mL. For the same substance, the “LD50 BMKC” value (BMKC) was 830 µg/mL, the “H1299 LD50” value (H1299) was “> (> indicates greater than 1000)” and the “HeLaS3 LD50” value (HeLaS3) was “> (> indicates greater than 1000)”. For the same substance, the “LD50 MCF7” value (MCF7) was 540 µg/mL, the “PC3 LD50” value (PC3) was “> (> indicates greater than 1000)” and the “LD50 SW480” value (SW480) was “> (> indicates greater than 1000)”. The LD50 [4] was “> (> indicates greater than 1000)”, the “WI38 LD50” value (WI38) was “> (> indicates greater than 1000)” and the “LD50 WI38” value (WI38) was “> (> indicates greater than 1000)”.

With FGKGIGKVGKKLL-NH2 [P132] the “paerug9027 (MIC)” value [1] was 100 µg/mL, the “staph6538 (MIC)” value [2] was “> (> indicates greater than 200 μg/mL)” and the “yeast (MIC or MFC)” value [3] was “> (> indicates greater than 200 μg/mL)”. For the same substance, the “LD50 BMKC” value (BMKC) was “> (> indicates greater than 1000)”, the “H1299 LD50” value (H1299) was “> (> indicates greater than 1000)” and the “HeLaS3 LD50” value (HeLaS3) was “> (> indicates greater than 1000)”. The “LD50 MCF7” value (MCF7) was “> (> indicates greater than 1000)”, the “PC3 LD50” value (PC3) was “> (> indicates greater than 1000)” and the “LD50 SW480” value (SW480) was “> (> indicates greater than 1000)”. The LD50 [4] was “> (> indicates greater than 1000)”, the “WI38 LD50” value (WI38) was “> (> indicates greater than 1000)” and the “LD50 WI38” value (WI38) was “> (> indicates greater than 1000)”.

FAKAIAKIAFGKGIGKVGKKLL-NH2 [P134] was tested, and the “paerug9027 (MIC)” value [1] was “> (> indicates greater than 200 μg/mL)”, the “staph6538 (MIC)” value [2] was 100 µg/mL and the “yeast (MIC or MFC)” value [3] was 200 µg/mL. For the same substance, the “LD50 BMKC” value (BMKC) was “> (> indicates greater than 1000)”, the “H1299 LD50” value (H1299) was “> (> indicates greater than 1000)” and the “HeLaS3 LD50” value (HeLaS3) was “> (> indicates greater than 1000)”. For the same substance, the “LD50 MCF7” value (MCF7) was “> (> indicates greater than 1000)”, the “PC3 LD50” value (PC3) was “> (> indicates greater than 1000)” and the “LD50 SW480” value (SW480) was 740 µg/mL. For the same substance, the LD50 [4] was “> (> indicates greater than 1000)”, the “WI38 LD50” value (WI38) was “> (> indicates greater than 1000)” and the “LD50 WI38” value (WI38) was “> (> indicates greater than 1000)”.

In the case of KWKLF-NH2 [P131, KWKLF-NH2], the “paerug9027 (MIC)” value [1] is reported as 10 µg/mL, the “staph6538 (MIC)” value [2] is reported as 25 µg/mL and the “yeast (MIC or MFC)” value [3] is reported as 100 µg/mL. The “LD50 BMKC” value (BMKC) was “> (> indicates greater than 1000)”, the “H1299 LD50” value (H1299) was “> (> indicates greater than 1000)” and the “HeLaS3 LD50” value (HeLaS3) was “> (> indicates greater than 1000)”. The “LD50 MCF7” value (MCF7) was 600 µg/mL, the “PC3 LD50” value (PC3) was “> (> indicates greater than 1000)” and the “LD50 SW480” value (SW480) was 555 µg/mL. For the same substance, the LD50 [4] was “> (> indicates greater than 1000)”, the “WI38 LD50” value (WI38) was “> (> indicates greater than 1000)” and the “LD50 WI38” value (WI38) was “> (> indicates greater than 1000)”.

For FAKLLAKLAKKEL-NH2 [P126], the “paerug9027 (MIC)” value [1] was “> (> indicates greater than 200 μg/mL)”, the “staph6538 (MIC)” value [2] was “> (> indicates greater than 200 μg/mL)” and the “yeast (MIC or MFC)” value [3] was “> (> indicates greater than 200 μg/mL)”. The “LD50 BMKC” value (BMKC) was “> (> indicates greater than 1000)”, the “H1299 LD50” value (H1299) was “> (> indicates greater than 1000)” and the “HeLaS3 LD50” value (HeLaS3) was “> (> indicates greater than 1000)”. For the same substance, the “LD50 MCF7” value (MCF7) was “> (> indicates greater than 1000)”, the “PC3 LD50” value (PC3) was “> (> indicates greater than 1000)” and the “LD50 SW480” value (SW480) was “> (> indicates greater than 1000)”. The LD50 [4] was “> (> indicates greater than 1000)”, the “WI38 LD50” value (WI38) was “> (> indicates greater than 1000)” and the “LD50 WI38” value (WI38) was “> (> indicates greater than 1000)”.

With FAKKLAKKAKLAKKL-NH2 [P77] the “paerug9027 (MIC)” value [1] was 100 µg/mL, the “staph6538 (MIC)” value [2] was 200 µg/mL and the “yeast (MIC or MFC)” value [3] was 200 µg/mL. The “LD50 BMKC” value (BMKC) was 125 µg/mL, the “H1299 LD50” value (H1299) was “> (> indicates greater than 1000)” and the “HeLaS3 LD50” value (HeLaS3) was “> (> indicates greater than 1000)”. The “LD50 MCF7” value (MCF7) was “> (> indicates greater than 1000)”, the “PC3 LD50” value (PC3) was “> (> indicates greater than 1000)” and the “LD50 SW480” value (SW480) was “> (> indicates greater than 1000)”. For the same substance, the LD50 [4] was “> (> indicates greater than 1000)”, the “WI38 LD50” value (WI38) was “> (> indicates greater than 1000)” and the “LD50 WI38” value (WI38) was “> (> indicates greater than 1000)”.

FAFGKGIGKVGKKLL-NH2 [P133] was tested, and the “paerug9027 (MIC)” value [1] was “> (> indicates greater than 200 μg/mL)”, the “staph6538 (MIC)” value [2] was “> (> indicates greater than 200 μg/mL)” and the “yeast (MIC or MFC)” value [3] was “> (> indicates greater than 200 μg/mL)”. For the same substance, the “LD50 BMKC” value (BMKC) was “> (> indicates greater than 1000)”, the “H1299 LD50” value (H1299) was “> (> indicates greater than 1000)” and the “HeLaS3 LD50” value (HeLaS3) was “> (> indicates greater than 1000)”. The “LD50 MCF7” value (MCF7) was “> (> indicates greater than 1000)”, the “PC3 LD50” value (PC3) was “> (> indicates greater than 1000)” and the “LD50 SW480” value (SW480) was “> (> indicates greater than 1000)”. For the same substance, the LD50 [4] was “> (> indicates greater than 1000)”, the “WI38 LD50” value (WI38) was “> (> indicates greater than 1000)” and the “LD50 WI38” value (WI38) was “> (> indicates greater than 1000)”.

FAKKLAKALL-NH2 [P58] was tested, and the “paerug9027 (MIC)” value [1] was 100 µg/mL, the “staph6538 (MIC)” value [2] was 100 µg/mL and the “yeast (MIC or MFC)” value [3] was 200 µg/mL. The “LD50 BMKC” value (BMKC) was “> (> indicates greater than 1000)”, the “H1299 LD50” value (H1299) was “> (> indicates greater than 1000)” and the “HeLaS3 LD50” value (HeLaS3) was “> (> indicates greater than 1000)”. The “LD50 MCF7” value (MCF7) was “> (> indicates greater than 1000)”, the “PC3 LD50” value (PC3) was “> (> indicates greater than 1000)” and the “LD50 SW480” value (SW480) was “> (> indicates greater than 1000)”. The LD50 [4] was “> (> indicates greater than 1000)”, the “WI38 LD50” value (WI38) was “> (> indicates greater than 1000)” and the “LD50 WI38” value (WI38) was “> (> indicates greater than 1000)”.

FAKLLAKLAKAKG-NH2 [P96] was tested, and the “paerug9027 (MIC)” value [1] was “> (> indicates greater than 200 μg/mL)”, the “staph6538 (MIC)” value [2] was “> (> indicates greater than 200 μg/mL)” and the “yeast (MIC or MFC)” value [3] was “> (> indicates greater than 200 μg/mL)”. For the same substance, the “LD50 BMKC” value (BMKC) was “> (> indicates greater than 1000)”, the “H1299 LD50” value (H1299) was “> (> indicates greater than 1000)” and the “HeLaS3 LD50” value (HeLaS3) was “> (> indicates greater than 1000)”. For the same substance, the “LD50 MCF7” value (MCF7) was “> (> indicates greater than 1000)”, the “PC3 LD50” value (PC3) was “> (> indicates greater than 1000)” and the “LD50 SW480” value (SW480) was “> (> indicates greater than 1000)”. For the same substance, the LD50 [4] was “> (> indicates greater than 1000)”, the “WI38 LD50” value (WI38) was “> (> indicates greater than 1000)” and the “LD50 WI38” value (WI38) was “> (> indicates greater than 1000)”.

With FALAKALKKAL-NH2 [P166, FALAKALKKAL-NH2] the “paerug9027 (MIC)” value [1] was “> (> indicates greater than 200 μg/mL)”, the “staph6538 (MIC)” value [2] was “> (> indicates greater than 200 μg/mL)” and the “yeast (MIC or MFC)” value [3] was “> (> indicates greater than 200 μg/mL)”. The “LD50 BMKC” value (BMKC) was “> (> indicates greater than 1000)”, the “H1299 LD50” value (H1299) was “> (> indicates greater than 1000)” and the “HeLaS3 LD50” value (HeLaS3) was “> (> indicates greater than 1000)”. The “LD50 MCF7” value (MCF7) was “> (> indicates greater than 1000)”, the “PC3 LD50” value (PC3) was “> (> indicates greater than 1000)” and the “LD50 SW480” value (SW480) was “> (> indicates greater than 1000)”. The LD50 [4] was “> (> indicates greater than 1000)”, the “WI38 LD50” value (WI38) was “> (> indicates greater than 1000)” and the “LD50 WI38” value (WI38) was “> (> indicates greater than 1000)”.
